Where two headings read alike, the source gives them in different places.
Target: TNFα trimer (Homo sapiens, UniProt P01375)
Assay: TNFα FP Competitive Binding Assay
Method: TNFα FP Competitive Binding Assay
• 1. Assay Buffer: Prepare 1× Assay Buffer (Water with 47 mM HEPES, 47 mM NaCl, 0.9 mM EDTA, 0.0071% Triton X-100) by adding 25 mL of 1 M HEPES, 5 mL of 5 M NaCl, 1 mL of 0.5 M EDTA, and 375 μL of a 10% Triton X-100 stock to a fresh 500 mL bottle of water. • 2. Assay Mixture: Prepare fresh Assay Mixture containing 20 nM TNFα trimer (60 nM protein) and 1 nM 2′,7′-difluoro-3′,6′-dihydroxy-N-(2-(2-(2-((4-(isoquinolin-8-yl)-3-(4-(isoquinolin-8-yl)phenethoxy)benzyl)oxy)ethoxy)ethoxy)ethyl)-3-oxo-3H-spiro[isobenzofuran-1,9′-xanthene]-5-carboxamide probe in 1× Assay Buffer.
Compound Plate Preparation
Manual 12-point 1:3 Dilution Plates: (384 well polypropylene plates)
Top concentration of compounds, 10 mM in DMSO, dispensed in rows A-O in columns 1 and 13. Compounds are serially diluted 1:3 with DMSO in columns 2-12 or 14-24 using a 16-channel Matrix pipettor. Plates stored at −20° C.
Discovery Preps 12-point 1:3 Dilution Plates: (384 well assay plates)
Top concentration, 5 mM in DMSO, of compounds placed in rows A-O in columns 1 and 13. Compounds are serially diluted 1:3 with DMSO in columns 2-12 or 14-24. Compound solutions are dispensed into replicate assay plates at 410 nL per well. Plates stored at 4° C.
TNFα FP Competitive Binding Assay Protocol
• 1. Compound plates are warmed to rt. • 2. Fresh Assay Mixture is prepared. • 3. Assay Mixture (20 μL) is dispensed each well of 384 assay plates using a Thermo Multidrop Combi or 16-channel Matrix pipettor. If Manual 12-point 1:3 Dilution Plates are to be tested, Assay Mix is dispensed into empty plates. Discovery Preps 12-point 1:3 Dilution Plates already contain 410 nL compound solution in DMSO. • 4. For Manual 12-point 1:3 Dilution Plates, 0.7 μL is manually transferred using a 16-channel Matrix pipettor to replicate assay plates containing 20 μL Assay Mixture for a final top compound concentration of 338 μM (3.4% DMSO). • 5. For Discovery Preps 12-point 1:3 Dilution Plates, 20 μL Assay Mixture added the 410 nL compound solution already in the plates yields a final top compound concentration of 100 μM (2.0% DMSO). • 6. Background subtraction controls are wells P1-P8 containing only Assay Buffer. The low % inhibition controls are wells P9-P16 containing only Assay Mix. The high % inhibition are wells P17-P24 containing only 1 nM 2′,7′-difluoro-3′,6′-dihydroxy-N-(2-(2-(2-((4-(isoquinolin-8-yl)-3-(4-(isoquinolin-8-yl)phenethoxy)benzyl)oxy)ethoxy)ethoxy)ethyl)-3-oxo-3H-spiro[isobenzofuran-1,9′-xanthene]-5-carboxamide probe in 1× Assay Buffer. • 7. Plates are incubated at […] for 18-24 h in 37° C. incubator (CO2 is off). • 8. Prior to reading the assay, the plates are placed in a dark cabinet to equilibrate at rt for one hour. • 9. Background-subtracted fluorescence polarization (mP) is measured using a PerkinElmer Envision plate reader. • 10. Raw data is entered into Assay Explorer and dose-response curves are generated using a variable slope curve.

[1] = fluorescence polarization competition, 20 nM TNFα trimer, 1 nM OregonGreen488 probe, read-out: TNF IC50 (TNFα FP binding assay IC50)
[2] = TNFα FP competitive binding assay, class symbols A/B/C, read-out: TNF IC50

Chain of TNFα trimer (P01375 77-233 limits assumed): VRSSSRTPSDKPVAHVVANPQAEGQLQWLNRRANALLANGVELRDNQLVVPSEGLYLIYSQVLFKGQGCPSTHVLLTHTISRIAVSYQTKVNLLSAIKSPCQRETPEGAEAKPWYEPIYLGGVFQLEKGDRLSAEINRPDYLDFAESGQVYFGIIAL

With “1-((R)-4-(5-((R)-8-(3-(Hydroxymethyl)phenyl)-7,8-dihydro-6H-pyrrolo[2′,1′:2,3]imidazo[4,5-b]pyridin-2-yl)pyrimidin-2-yl)-2-methylpiperazin-1-yl)ethanone [Example 45]” the IC50 [1] was 1 to 10 µM.

Compound `c1ccc(C2COCc3nc4ccc(-c5cnc(N6CCOCC6)nc5)cc4n32)cc1` (single isomer, unassigned) [Example 21] has an IC50 [1] of under 1 µM.

In the case of `O=C1NCC2CN(c3ncc(-c4ccc5nc6n(c5n4)[C@@H](c4ccccc4)CC6)cn3)CCN12` (single isomer, unassigned) [Example 30], the IC50 [1] is reported as under 1 µM.

`O=C1NCC2CN(c3ncc(-c4ccc5nc6n(c5n4)C(c4ccccc4)COC6)cn3)CCN12` (stereo in doubt) [Example 58, (8aS)-7-(5-(9-Phenyl-8,9-dihydro-6H-pyrido[3′,2′:4,5]imidazo[2,1-c][1,4]oxazin-2-yl)pyrimidin-2-yl)hexahydroimidazo[1,5-a]pyrazin-3(2H)-one] showed an IC50 [1] of under 1 µM.

`C[C@]1(c2ccccc2)CCc2nc3ccc(-c4cnc(N5CCC(O)CC5)nc4)nc3n21` [(R)-1-(5-(8-methyl-8-phenyl-7,8-dihydro-6H-pyrrolo[2′,1′:2,3]imidazo[4,5-b]pyridin-2-yl)pyrimidin-2-yl)piperidin-4-ol] showed an IC50 [1] of under 1 µM.

`CC(C)(O)c1ncc(-c2ccc3nc4n(c3n2)[C@@](C)(c2ccccc2)CC4)cn1` [(R)-2-(5-(8-methyl-8-phenyl-7,8-dihydro-6H-pyrrolo[2′,1′:2,3]imidazo[4,5-b]pyridin-2-yl)pyrimidin-2-yl)propan-2-ol] was tested, and the IC50 [1] was under 1 µM.

With `C[C@@]1(c2ccccc2)CCc2nc3ccc(-c4cnc(N5CCC(O)CC5)nc4)nc3n21` [(S)-1-(5-(8-methyl-8-phenyl-7,8-dihydro-6H-pyrrolo[2′,1′:2,3]imidazo[4,5-b]pyridin-2-yl)pyrimidin-2-yl)piperidin-4-ol] the IC50 [1] was 10 to 100 µM.

`CC(C)(O)c1ncc(-c2ccc3nc4n(c3n2)[C@](C)(c2ccccc2)CC4)cn1` [(S)-2-(5-(8-methyl-8-phenyl-7,8-dihydro-6H-pyrrolo[2′,1′:2,3]imidazo[4,5-b]pyridin-2-yl)pyrimidin-2-yl)propan-2-ol] gave an IC50 [1] of 10 to 100 µM.

Compound `CNS(=O)(=O)c1ccc(-c2ccc3nc4n(c3c2)C(c2ccccc2)CC4)cc1` (stereo not shown) [A.1] has an IC50 [1] of under 1 µM.

For `CCS(=O)(=O)c1ccc(-c2ccc3nc4n(c3c2)C(c2ccccc2)CC4)cc1` (stereo not shown) [A.2], the IC50 [1] was under 1 µM.

In the case of `O=S(=O)(c1ccc(-c2ccc3nc4n(c3c2)C(c2ccccc2)CC4)cc1)N1CCOCC1` (stereo not shown) [A.3], the IC50 [1] is reported as under 1 µM.

For `CS(=O)(=O)NCc1ccc(-c2ccc3nc4n(c3c2)C(c2ccccc2)CC4)cc1` (stereo not shown) [A.4], the IC50 [1] was under 1 µM.

With `CS(=O)(=O)c1ccc(-c2ccc3nc4n(c3c2)C(c2ccccc2)CC4)cc1` (stereo not shown) [A.5] the IC50 [1] was under 1 µM.

In the case of `NS(=O)(=O)c1ccc(-c2ccc3nc4n(c3c2)C(c2ccccc2)CC4)cc1` (stereo not shown) [A.6], the IC50 [1] is reported as under 1 µM.

In the case of `N#CCc1ccc(-c2ccc3nc4n(c3c2)C(c2ccccc2)CC4)cc1` (stereo not shown) [A.7], the IC50 [1] is reported as under 1 µM.

`c1ccc(C2CCc3nc4ccc(-c5cnc(C6CC6)nc5)cc4n32)cc1` (stereo not shown) [A.8] showed an IC50 [1] of under 1 µM.

In the case of `CCS(=O)(=O)c1ccc(-c2ccc3nc4n(c3c2)C(c2ccccc2)CC4)cn1` (stereo not shown) [A.9], the IC50 [1] is reported as under 1 µM.

`CN(C)C(=O)c1ccc(-c2ccc3nc4n(c3c2)C(c2ccccc2)CC4)cc1` (stereo not shown) [A.10] was tested, and the IC50 [1] was under 1 µM.

`CCN(C)C(=O)c1ccc(-c2ccc3nc4n(c3c2)C(c2ccccc2)CC4)cc1` (stereo not shown) [A.11] showed an IC50 [1] of under 1 µM.

`CN(C)c1ccc(-c2ccc3nc4n(c3c2)C(c2ccccc2)CC4)cn1` (stereo not shown) [A.12] was tested, and the IC50 [1] was 1 to 10 µM.

`Cc1cc(-c2ccc3nc4n(c3c2)C(c2ccccc2)CC4)ccn1` (stereo not shown) [A.13] gave an IC50 [1] of 1 to 10 µM.

`Cc1ccc(-c2ccc3nc4n(c3c2)C(c2ccccc2)CC4)cn1` (stereo not shown) [A.14] showed an IC50 [1] of 1 to 10 µM.

`CCOc1cncc(-c2ccc3nc4n(c3c2)C(c2ccccc2)CC4)c1` (stereo not shown) [A.15] was tested, and the IC50 [1] was 1 to 10 µM.

Compound `CSc1ccc(-c2ccc3nc4n(c3c2)C(c2ccccc2)CC4)cn1` (stereo not shown) [A.16] has an IC50 [1] of 1 to 10 µM.

`c1ccc(C2CCc3nc4ccc(-c5ccc(N6CCNCC6)nc5)cc4n32)cc1` (stereo not shown) [A.17] showed an IC50 [1] of 1 to 10 µM.

`N#CCOc1cccc(-c2ccc3nc4n(c3c2)C(c2ccccc2)CC4)c1` (stereo not shown) [A.18] gave an IC50 [1] of 1 to 10 µM.

Work on `O=C(NC1CC1)c1ccc(-c2ccc3nc4n(c3c2)C(c2ccccc2)CC4)cc1` (stereo not shown) [A.19] yielded an IC50 [1] of 1 to 10 µM.

In the case of `CN1CCN(c2ccc(-c3ccc4nc5n(c4c3)C(c3ccccc3)CC5)cn2)CC1` (stereo not shown) [A.20], the IC50 [1] is reported as 1 to 10 µM.

With `c1ccc(C2CCc3nc4ccc(-c5cnn(Cc6cccnc6)c5)cc4n32)cc1` (stereo not shown) [A.21] the IC50 [1] was 1 to 10 µM.

In the case of `c1ccc(C2CCc3nc4ccc(-c5cccnc5)cc4n32)cc1` (stereo not shown) [A.22], the IC50 [1] is reported as 1 to 10 µM.

`Nc1ncc(-c2ccc3nc4n(c3c2)C(c2ccccc2)CC4)cn1` (stereo not shown) [A.23] gave an IC50 [1] of 1 to 10 µM.

Compound `c1ccc(C2CCc3nc4ccc(-c5cncnc5)cc4n32)cc1` (stereo not shown) [A.24] has an IC50 [1] of 1 to 10 µM.

With `Cc1cncc(-c2ccc3nc4n(c3c2)C(c2ccccc2)CC4)c1` (stereo not shown) [A.25] the IC50 [1] was 1 to 10 µM.

In the case of `O=C(NCC1CCCO1)c1ccc(-c2ccc3nc4n(c3c2)C(c2ccccc2)CC4)cc1` (stereo not shown) [A.26], the IC50 [1] is reported as 1 to 10 µM.

Work on `Nc1ccc(-c2ccc3nc4n(c3c2)C(c2ccccc2)CC4)cn1` (stereo not shown) [A.27] yielded an IC50 [1] of 10 to 100 µM.

With `Cc1c(-c2ccc3nc4n(c3c2)C(c2ccccc2)CC4)cnn1C` (stereo not shown) [A.28] the IC50 [1] was 10 to 100 µM.

`CN(C)C(=O)c1cccc(-c2ccc3nc4n(c3c2)C(c2ccccc2)CC4)c1` (stereo not shown) [A.29] was tested, and the IC50 [1] was 10 to 100 µM.

In the case of `CS(=O)(=O)c1cccc(-c2ccc3nc4n(c3c2)C(c2ccccc2)CC4)c1` (stereo not shown) [A.30], the IC50 [1] is reported as 10 to 100 µM.

Work on `CS(=O)(=O)c1cncc(-c2ccc3nc4n(c3c2)C(c2ccccc2)CC4)c1` (stereo not shown) [A.31] yielded an IC50 [1] of 10 to 100 µM.

`Cc1ncccc1-c1ccc2nc3n(c2c1)C(c1ccccc1)CC3` (stereo not shown) [A.32] showed an IC50 [1] of 10 to 100 µM.

`CC(C)S(=O)(=O)c1ccc(-c2ccc3nc4n(c3c2)C(c2ccccc2)CC4)cc1` (stereo not shown) [A.33] was tested, and the IC50 [1] was under 1 µM.

`N#CCOc1ccc(-c2ccc3nc4n(c3c2)C(c2ccccc2)CC4)cc1` (stereo not shown) [A.34] was tested, and the IC50 [1] was 1 to 10 µM.

In the case of `CCNC(=O)c1ccc(-c2ccc3nc4n(c3c2)C(c2ccccc2)CC4)cc1` (stereo not shown) [A.35], the IC50 [1] is reported as 1 to 10 µM.

Work on `NC(=O)c1ccc(-c2ccc3nc4n(c3c2)C(c2ccccc2)CC4)cc1` (stereo not shown) [A.36] yielded an IC50 [1] of 1 to 10 µM.

`c1ccc(C2CCc3nc4ccc(-c5ccc6c(c5)OCO6)cc4n32)cc1` (stereo not shown) [A.37] gave an IC50 [1] of 1 to 10 µM.

`COc1cncc(-c2ccc3nc4n(c3c2)C(c2ccccc2)CC4)c1` (stereo not shown) [A.38] showed an IC50 [1] of 1 to 10 µM.

`COCCNC(=O)c1ccc(-c2ccc3nc4n(c3c2)C(c2ccccc2)CC4)cc1` (stereo not shown) [A.39] was tested, and the IC50 [1] was 1 to 10 µM.

`CNC(=O)c1ccc(-c2ccc3nc4n(c3c2)C(c2ccccc2)CC4)cc1` (stereo not shown) [A.40] showed an IC50 [1] of 1 to 10 µM.

In the case of `N#CCc1cccc(-c2ccc3nc4n(c3c2)C(c2ccccc2)CC4)c1` (stereo not shown) [A.41], the IC50 [1] is reported as 1 to 10 µM.

With `CS(=O)(=O)NCc1cccc(-c2ccc3nc4n(c3c2)C(c2ccccc2)CC4)c1` (stereo not shown) [A.42] the IC50 [1] was 1 to 10 µM.

`CNC(=O)c1cccc(-c2ccc3nc4n(c3c2)C(c2ccccc2)CC4)c1` (stereo not shown) [A.43] showed an IC50 [1] of 1 to 10 µM.

Work on `CCN(C)C(=O)c1cccc(-c2ccc3nc4n(c3c2)C(c2ccccc2)CC4)c1` (stereo not shown) [A.44] yielded an IC50 [1] of 10 to 100 µM.

`CN(C)CCNC(=O)c1cccc(-c2ccc3nc4n(c3c2)C(c2ccccc2)CC4)c1` (stereo not shown) [A.45] showed an IC50 [1] of 10 to 100 µM.

`Cn1cc(-c2ccc3nc4n(c3c2)C(c2ccccc2)CC4)ccc1=O` (stereo not shown) [A.46] showed an IC50 [1] of 10 to 100 µM.

For `Cn1ccc(-c2ccc3nc4n(c3c2)C(c2ccccc2)CC4)c1` (stereo not shown) [A.47], the IC50 [1] was 10 to 100 µM.

Compound `OC1(c2ncc(-c3ccc4nc5n(c4c3)[C@@H](c3ccccc3)CC5)cn2)CCOCC1` [AA.1] has an IC50 [2] of under 1 µM.

`OC1(c2ncc(-c3ccc4nc5n(c4c3)[C@@H](c3ccccc3)CC5)cn2)CCC1` [AA.2] gave an IC50 [2] of under 1 µM.

For `OC1(c2ncc(-c3ccc4nc5n(c4c3)[C@@H](c3ccccc3)CC5)cn2)COC1` [AA.3], the IC50 [2] was under 1 µM.

`c1ccc([C@H]2CCc3nc4ccc(-c5ccnc(OC6CCOCC6)c5)cc4n32)cc1` [AA.4] gave an IC50 [2] of under 1 µM.

`c1ccc([C@H]2COCc3nc4ccc(-c5cnc(N6CCOCC6)nc5)nc4n32)cc1` [AB.1] gave an IC50 [2] of under 1 µM.

For `CC(C)(O)c1ncc(-c2ccc3nc4n(c3n2)[C@@H](c2ccccc2)COC4)cn1` [AB.2], the IC50 [2] was under 1 µM.
